What was measured:
Format in all cases: in vivo
[1] = system: chickweed (Stellaria media); test: Postemergence herbicidal activity; settings: Table 1, visual, after 2 weeks
Description: (§1) Seeds of the desired test plant species were planted in Grace-Sierra MetroMix® 306 planting mixture, which typically has a pH of 6.0 to 6.8 and an organic matter content of about 30 percent, in plastic pots with a surface area of 64 square centimeters. When required to ensure good germination and healthy plants, a fungicide treatment and/or other chemical or physical treatment was applied. The plants were grown for 7-21 days in a greenhouse with an approximate 15 hr photoperiod which was maintained at about 23-29° C. during the day and 22-28° C. during the night. Nutrients and water were added on a regular basis and supplemental lighting was provided with overhead metal halide 1000-Watt lamps as necessary. The plants were employed for testing when they reached the first or second true leaf stage.
(§2) A weighed amount, determined by the highest rate to be tested, of each test compound was placed in a 20 mL glass vial and was dissolved in 4 mL of a 97:3 v/v (volume/volume) mixture of acetone and dimethyl sulfoxide (DMSO) to obtain concentrated stock solutions. […] The concentrated stock solutions obtained were diluted with an aqueous mixture containing acetone, water, isopropyl alcohol, DMSO, Atplus 411F crop oil concentrate, and Triton X-155 surfactant in a 48.5:39:10:1.5:1.0:0.02 v/v ratio to obtain spray solutions of known concentration. The solutions containing the highest concentration to be tested were prepared by diluting 2 mL aliquots of the stock solution with 13 mL of the mixture and lower concentrations were prepared by serial dilution of the stock solution. Approximately 1.5 mL aliquots of each solution of known concentration were sprayed evenly onto each of the test plant pots using a DeVilbiss atomizer driven by compressed air pressure of 2 to 4 psi ([…]) to obtain thorough coverage of each plant. Control plants were sprayed in the same manner with the aqueous mixture. In this test an application rate of 1 ppm results in the application of approximately 1 g/Ha.
(§3) The treated plants and control plants were placed in a greenhouse as described above and watered by sub-irrigation to prevent wash-off of the test compounds. After 2 weeks the condition of the test plants as compared with that of the untreated plants was determined visually and scored on a scale of 0 to 100 percent where 0 corresponds to no injury and 100 corresponds to complete kill.

[2] = system: cocklebur (Xanthium strumarium); test: Postemergence herbicidal activity; settings: Table 1, visual, after 2 weeks
Description: as §1, §2, §3

[3] = system: wild buckwheat (Polygonum convolvulus); test: Postemergence herbicidal activity; settings: Table 1, visual, after 2 weeks
Description: as §1, §2, §3

[4] = system: morningglory (Ipomoea hederacea); test: Preemergence herbicidal activity; settings: Table 6 (headed Post-emergent; text: preemergence), after 3 weeks; for pest or weed control at 280 ppm: rate 280 ppm
Excerpt: (§4) Seeds of the desired test plant species were planted in a soil matrix prepared by mixing a loam soil (43 percent silt, 19 percent clay, and 38 percent sand, with a pH of about 8.1 and an organic matter content of bout 1.5 percent) and sand in a 70 to 30 ratio. The soil matrix was contained in plastic pots with a surface area of 113 square centimeters. When required to ensure good germination and healthy plants. a fungicide treatment and/or other chemical or physical treatment was applied.
(§5) A weighed amount, determined by the highest rate to be tested, of each test compound was placed in a 20 mL glass vial and was dissolved in 4 mL of a 97:3 v/v (volume/volume) mixture of acetone and dimethyl sulfoxide to obtain concentrated stock solutions. […] The stock solutions obtained were diluted with a 99.9:0.1 mixture of water and Tween® […] surfactant to obtain application solutions of known concentration. The solutions containing the highest concentration to be tested were prepared by diluting 2 mL aliquots of the stock solution with 15 mL of the mixture and lower concentrations were prepared by serial dilution of the stock solution. A 2.5 mL aliquot of each solution of known concentration was sprayed evenly onto the soil surface (113 sq. cm) of each seeded pot using a Cornwall 5.0 mL glass syringe fitted with a TeeJet TN-3 hollow cone nozzle to obtain thorough coverage of the soil in each pot. Control pots were sprayed in the same manner with the aqueous mixture.
(§6) The treated pots and control pots were placed in a greenhouse maintained with an approximate 15 hr photoperiod and temperatures of about 23-29° C. during the day and 22-28° C. during the night. Nutrients and water were added on a regular basis and supplemental lighting was provided with overhead metal halide 1000-Watt lamps as necessary. The water was added by top-irrigation. After 3 weeks the condition of the test plants that germinated and grew as compared with that of the untreated plants that germinated and grew was determined visually and scored on a scale of 0 to 100 percent where 0 corresponds to no injury and 100 corresponds to complete kill or no germination.

[5] = system: pigweed (Amaranthus retroflexus); test: Preemergence herbicidal activity; settings: Table 6 (headed Post-emergent; text: preemergence), after 3 weeks; for pest or weed control at 280 ppm: rate 280 ppm
Excerpt: as §4, §5, §6

[6] = system: velvetleaf (Abutilon theophrasti); test: Preemergence herbicidal activity; settings: Table 6 (headed Post-emergent; text: preemergence), after 3 weeks; for pest or weed control at 280 ppm: rate 280 ppm
Excerpt: as §4, §5, §6

[7] = Stellaria media, post-emergence, 336 h, rate 250 ppm, read-out: Post-emergent % Control STEME
[8] = Xanthium strumarium, post-emergence, 336 h, rate 250 ppm, read-out: Post-emergent % Control XANST
[9] = Fallopia convolvulus, post-emergence, 336 h, rate 250 ppm, read-out: Post-emergent % Control POLCO
[10] = Ipomoea, 504 h, read-out: % Control IPOHE
[11] = Amaranthus retroflexus, 504 h, read-out: % Control AMARE
[12] = Abutilon theophrasti, 504 h, read-out: % Control ABUTH

Structure (SMILES)	% Control IPOHE ([4]; rate 560 ppm) [%]	% Control AMARE ([5]; rate 560 ppm) [%]	% Control ABUTH ([6]; rate 560 ppm) [%]	Post-emergent % Control STEME ([1]; rate 250 ppm) [%]	Post-emergent % Control XANST ([2]; rate 250 ppm) [%]	Post-emergent % Control POLCO ([3]; rate 250 ppm) [%]	also measured
Nc1c(F)c(Br)nc(C(=O)O)c1F [Compound 16, 4-Amino-3,5-difluoro-6-bromopyridine-2-carboxylic acid]	–	–	–	–	–	–	pest or weed control at 250 ppm [1, 7]: 30%; pest or weed control at 250 ppm [2, 8]: 60%; pest or weed control at 250 ppm [3, 9]: 70%; pest or weed control at 560 ppm ([4]; Ipomoea, 504 h, rate 560 ppm, read-out: % Control IPOHE): 80%; pest or weed control at 560 ppm ([5]; Amaranthus retroflexus, 504 h, rate 560 ppm, read-out: % Control AMARE): 70%; pest or weed control at 560 ppm ([6]; Abutilon theophrasti, 504 h, rate 560 ppm, read-out: % Control ABUTH): 0%
CN(O)c1cc(Cl)nc(C(=O)O)c1Cl [Compound 34, 4-N-hydroxy-N-methyl-amino-3,6-dichloropyridine-2-carboxylic acid]	95	100	100	–	–	–	Post-emergent % Control STEME ([1]; rate 125 ppm): 70%; Post-emergent % Control XANST ([2]; rate 125 ppm): 100%; Post-emergent % Control POLCO ([3]; rate 125 ppm): 100%
Nc1c(F)c(Oc2ccc(Cl)c(Cl)c2)nc(C(=O)O)c1Cl [Compound 55, 4-Amino-3-chloro-5-fluoro-6-(3,4-dichlorophenoxy)pyridine-2-carboxylic acid]	–	–	–	–	–	–	pest or weed control at 250 ppm [1, 7]: 95%; pest or weed control at 250 ppm [2, 8]: 100%; pest or weed control at 250 ppm [3, 9]: 100%; pest or weed control at 250 ppm ([4]; Ipomoea, 504 h, rate 250 ppm, read-out: % Control IPOHE): 100%; pest or weed control at 250 ppm ([5]; Amaranthus retroflexus, 504 h, rate 250 ppm, read-out: % Control AMARE): 95%; pest or weed control at 250 ppm ([6]; Abutilon theophrasti, 504 h, rate 250 ppm, read-out: % Control ABUTH): 100%
COC(=O)c1nc(Cl)cc(NC(C)=O)c1Cl [Compound 12, Methyl N-acetyl 4-amino-3,6-dichloropyridine-2-carboxylate]	100	100	95	–	–	–	Post-emergent % Control STEME ([1]; rate 125 ppm): 30%; Post-emergent % Control XANST ([2]; rate 125 ppm): 90%; Post-emergent % Control POLCO ([3]; rate 125 ppm): 100%
O=C(O)c1nc(Cl)cc(NCCO)c1Cl [Compound 31, 4-N-hydroxyethylamino-3,6-dichloropyridine-2-carboxylic acid]	100	95	95	30	40	70	–
C=CCNc1cc(Cl)nc(C(=O)O)c1Cl [Compound 30, 4-N-allylamino-3,6-dichloropyridine-2-carboxylic acid]	85	90	95	80	100	100	–
CON(C)c1cc(Cl)nc(C(=O)O)c1Cl [Compound 35, 4-N-methoxy-N-methyl-3,6-dichloropyridine-2-carboxylic acid]	85	95	90	–	–	–	Post-emergent % Control STEME ([1]; rate 125 ppm): 60%; Post-emergent % Control XANST ([2]; rate 125 ppm): 90%; Post-emergent % Control POLCO ([3]; rate 125 ppm): 100%
Nc1c(Cl)c(C(=O)O)nc(Cl)c1Sc1ccccc1 [Compound 24, 4-Amino-3,6-dichloro-5-phenylthiopyridine-2-carboxylate]	30	20	50	50	60	50	–
CC(C)Nc1cc(Cl)nc(C(=O)O)c1Cl [Compound 28, 4-N-isopropylamino-3,6-dichloropyridine-2-carboxylic acid]	100	100	100	90	95	95	–
O=C(O)c1nc(Cl)cc(-n2cccc2)c1Cl [Compound 37, 4-pyrrolo-3,6-Dichloropyridine-2-carboxylic acid]	95	100	100	–	–	–	Post-emergent % Control STEME ([1]; rate 125 ppm): 70%; Post-emergent % Control XANST ([2]; rate 125 ppm): 90%; Post-emergent % Control POLCO ([3]; rate 125 ppm): 90%
CN(C)C=Nc1cc(Cl)nc(C(=O)O)c1Cl [Compound 40, 4-N,N-Dimethylformamidino-3,6-dichloropyridine-2-carboxylic acid]	100	100	100	90	100	100	–
CCCCOCCOC(=O)c1nc(Cl)cc(N)c1Cl [Compound 10, butoxyethyl 4-amino-3,6-dichloropyridine-2-carboxylate]	–	–	–	–	–	–	pest or weed control at 125 ppm ([1]; Stellaria media, post-emergence, 336 h, rate 125 ppm, read-out: Post-emergent % Control STEME): 50%; pest or weed control at 125 ppm ([2]; Xanthium strumarium, post-emergence, 336 h, rate 125 ppm, read-out: Post-emergent % Control XANST): 90%; pest or weed control at 125 ppm ([3]; Fallopia convolvulus, post-emergence, 336 h, rate 125 ppm, read-out: Post-emergent % Control POLCO): 100%; pest or weed control at 280 ppm [4, 10]: 100%; pest or weed control at 280 ppm [5, 11]: 100%; pest or weed control at 280 ppm [6, 12]: 100%
COC(=O)c1nc(Br)c(Br)c(N)c1Br [Compound 18, Methyl 4-amino-3,5,6-tribromopyridine-2-carboxylate]	–	–	–	–	–	–	pest or weed control at 250 ppm [1, 7]: 90%; pest or weed control at 250 ppm [2, 8]: 85%; pest or weed control at 250 ppm [3, 9]: 75%; pest or weed control at 280 ppm [4, 10]: 30%; pest or weed control at 280 ppm [5, 11]: 80%; pest or weed control at 280 ppm [6, 12]: 98%
COCCNc1cc(Cl)nc(C(=O)O)c1Cl [Compound 32, 4-N-methoxyethylamino-3,6-dichloropyridine-2-carboxylic acid]	90	70	90	20	80	100	–
Nc1cc(Oc2ccc(Cl)c(Cl)c2)nc(C(=O)O)c1Cl [Compound 51, 4-amino-3-chloro-6-(3,4-dichlorophenoxy)-pyridine-2-carboxylic acid]	–	–	–	–	–	–	pest or weed control at 250 ppm [1, 7]: 70%; pest or weed control at 250 ppm [2, 8]: 100%; pest or weed control at 250 ppm [3, 9]: 100%; pest or weed control at 280 ppm [4, 10]: 0%; pest or weed control at 280 ppm [5, 11]: 98%; pest or weed control at 280 ppm [6, 12]: 80%
